According to patent publication US20010020013A1, “Ortho-diphenol compounds, methods and pharmaceutical compositions for inhibiting parp” (GUILFORD PHARMACEUTICALS, INC., priority 1998, published 2001):

Key:
[1] = system: C57/BL male mice; test: Septic shock assay (LPS plus galactosamine challenge), mortality; assay type: in vivo, mouse; conditions: 60, 20, 6 and 2 mg/kg daily IP for three days, first dose 30 min after challenge
Experimental: Groups of 10 C57/BL male mice weighing 18 to 20 g were administered a test compound, 1-carboxynaphthalene-1-carboxamide at the doses of 60, 20, 6 and 2 mg/kg, daily, by intraperitopeal (IP) injection for three consecutive days. Each animal was first challenged with lipopolysaccharide (LPS, from E. Coli, LD100 of […] IV) plus galactosamine (20 mg/animal IV). The first dose of test compound in a suitable vehicle was given 30 minutes after challenge, and the second and third doses were given 24 hours later on day 2 and day 3 respectively, with only the surviving animals receiving the second or third dose of the test compound. Mortality was recorded every 12 hours after challenge for the three-day testing period. 1-Carboxy-naphthalene-1-carboxamide provided a protection against mortality from septic shock of about 40%.

[2] = system: human fibroblast cells lines (W138 or BJ cells); test: Extending proliferative capacity and lifespan of cells; assay type: cell-based; conditions: untreated cells stop dividing after about 40 days
Experimental: At the time of subdivision, the media is aspirated, and the cells rinsed with phosphate buffer saline (PBS) and then trypsinized. The cells are counted with a Coulter counter and plated at a density of 10^5 cells per cm^2 in 6-well tissue culture plates in DMEM/199 medium supplemented with 10% bovine calf serum and varying amounts ([…]: from a 100X stock solution in DMEM/M199 medium) of a PARP inhibitor of Formula I as disclosed herein. This process is repeated every 7 days until the cell appear to stop dividing. The untreated (control) cells reach senescence and stop dividing after about 40 days in culture.

[3] = system: male Long-Evans rats; test: Neuroprotective effect of DPQ on focal cerebral ischemia (distal MCA cauterization plus bilateral CCA occlusion), TTC infarct area and volume; assay type: in vivo, rat
Experimental: Focal cerebral ischemia was produced by cauterization of the right distal MCA (middle cerebral artery) with bilateral temporary common carotid artery occlusion in male Long-Evans rats for 90 minutes. All procedures performed on the animals were approved by the University Institutional Animal Care and Use Committee of the University of Pennsylvania. A total of 42 rats (weights: 230-340 g) obtained from Charles River were used in this study. The animals fasted overnight with free access to water prior to the surgical procedure.
Two hours prior to MCA occlusion, varying amounts (control, n=14; 5 mg/kg, n=7; 10 mg/kg, n=7; 20 mg/kg, n=7; and 40 mg/kg, n=7) of the compound, 3,4-dihydro-5-[4-(1-piperidinyl)-butoxy]-1 (2H)-isoquinolinone (“DPQ”) were dissolved in dimethyl sulfoxide (DMSO) using a sonicator. A volume of 1.28 ml/kg of the resulting solution was injected intraperitoneally into fourteen rats.
Focal cerebral ischemia was produced by cauterization of the distal portion of the right MCA with bilateral temporary common carotid artery (CCA) occlusion by the procedure of Chen et al., “A Model of Focal Ischemic Stroke in the Rat: Reproducible Extensive Cortical Infarction”, Stroke 17:738-43 (1986) and/or Liu et al., “Polyethylene Glycol-conjugated Superoxide Dismutase and Catalase Reduce Ischemic Brain Injury”, Am. J. Physiol. 256:H589-93 (1989), both of which are hereby incorporated by reference. […]
Two hours after MCA occlusion, the animals were given the same doses of the PARP inhibitor as in the pre-treatment. […] To avoid artifacts due to edema, the damaged area was calculated by subtracting the area of the normal tissue in the hemisphere ipsilateral to the stroke from the area of the hemisphere contralateral to the stroke, by the method of Swanson et al., “A Semiautomated Method for Measuring Brain Infarct Volume”, J. Cereb. […] The total volume of infarction was calculated by summation of the damaged volume of the brain slices.

SMILES: NC(=O)C1(C(=O)O)CC=Cc2ccccc21 (stereo not shown) [1-Carboxy-naphthalene-1-carboxamide, 1-carboxynaphthalene-1-carboxamide]
- protection against mortality from septic shock [1]: about 40%

SMILES: NC(=O)c1cccc(N)c1 [3-amino-benzamide]
- effect on lifespan of the cells ([2]; 10 μM): little or no effect
- effect on lifespan of the cells ([2]; 100 μM): lengthen the lifespan of the cells
- time in culture at which cells still divide ([2]; 1 mM): still divide after 60 days

SMILES: O=C1NCCc2c(OCCCCN3CCCCC3)cccc21 [DPQ, 3,4-dihydro-5-[4-(1-piperidinyl)-butoxy]-1 (2H)-isoquinolinone]
- distribution of the cross-sectional infarct area (FIG. 1 curve) ([3]; 5 mg/kg): approximately halfway between the control and the 10 mg/kg curves
- distribution of the cross-sectional infarct area (FIG. 1 curve) ([3]; 20 mg/kg): approximately halfway between the control and the 10 mg/kg curves
- distribution of the cross-sectional infarct area (FIG. 1 curve) ([3]; 40 mg/kg): close to the control
